Measurements as given in PMC4728126, “Stable G protein-effector complexes in striatal neurons: mechanism of assembly and role in neurotransmitter signaling” (eLife, 2015).

Target: T1, D1R (Homo sapiens, UniProt P21728)
T1 construct: gene DRD1; cDNA from Missouri S&T cDNA Resource Center, transiently expressed in HEK293T/17 with Golf (Gαolf, Venus-Gβ2γ7), Ric-8B and masGRK3ct-Nluc BRET reporter
Test: BRET G protein activation assay (masGRK3ct-Nluc / Venus-Gβ[…]γ[…]), HEK293T/[…]
Type: cell-based
Settings: antagonist, […], against […] dopamine; Golf co-expressed

T1 sequence (P21728 whole entry): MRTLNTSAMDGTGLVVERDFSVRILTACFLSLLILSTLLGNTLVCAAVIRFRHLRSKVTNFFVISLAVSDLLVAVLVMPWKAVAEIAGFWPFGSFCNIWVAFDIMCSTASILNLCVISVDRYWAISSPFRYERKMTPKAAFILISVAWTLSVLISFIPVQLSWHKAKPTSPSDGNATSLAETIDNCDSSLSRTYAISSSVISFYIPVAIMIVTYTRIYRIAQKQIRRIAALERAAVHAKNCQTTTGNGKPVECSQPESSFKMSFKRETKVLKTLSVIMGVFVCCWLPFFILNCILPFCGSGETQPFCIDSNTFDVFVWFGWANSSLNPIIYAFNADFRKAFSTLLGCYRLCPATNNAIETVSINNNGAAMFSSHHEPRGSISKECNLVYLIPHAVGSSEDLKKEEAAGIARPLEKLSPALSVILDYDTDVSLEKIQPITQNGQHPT

**Q.** Which “BRET G protein activation assay (masGRK3ct-Nluc / Venus-Gβ2γ7), HEK293T/17” value does the source give for CN1CCc2cc(Cl)c(O)cc2[C@H]2c3ccccc3CC[C@@H]21 [SCH39166] here?
**A.** application of an antagonist SCH39166 facilitates complex re-association and quenching of the BRET response
